The numbers were not newly measured in patent US8541223B2, “Lactic acid bacteria having action of lowering blood uric acid level” (Meiji Co., Ltd., priority 2007, dated 2013), which cites them from elsewhere.

For this series, the system named is dietary hyperuricemia model animals. The note with it: oral administration of allopurinol; from Food Function Research News vol. 14.

`Oc1ncnc2[nH]ncc12` [allopurinol]: the “blood uric acid level in the model animals” value is on record as “significantly suppressed”.
